Results as given in PMC4912689, “The Extracellular Surface of the GLP-1 Receptor Is a Molecular Trigger for Biased Agonism” (Cell, 2016).
Entries after “also recorded” stand apart in the source; their conditions may differ.

Columns and labels:
human GLP-1R wildtype [1] = target: T1, human GLP-1R wildtype (Homo sapiens, UniProt P43220); experiment: cAMP accumulation; type: cell-based; settings: normalized to forskolin; n=3, duplicate; Figure S7
human GLP-1R wildtype [2] = target: T1, human GLP-1R wildtype; experiment: ERK1/2 phosphorylation; type: cell-based; settings: normalized to FBS; n=3, duplicate; Figure S7

T1 sequence (P43220 24-463): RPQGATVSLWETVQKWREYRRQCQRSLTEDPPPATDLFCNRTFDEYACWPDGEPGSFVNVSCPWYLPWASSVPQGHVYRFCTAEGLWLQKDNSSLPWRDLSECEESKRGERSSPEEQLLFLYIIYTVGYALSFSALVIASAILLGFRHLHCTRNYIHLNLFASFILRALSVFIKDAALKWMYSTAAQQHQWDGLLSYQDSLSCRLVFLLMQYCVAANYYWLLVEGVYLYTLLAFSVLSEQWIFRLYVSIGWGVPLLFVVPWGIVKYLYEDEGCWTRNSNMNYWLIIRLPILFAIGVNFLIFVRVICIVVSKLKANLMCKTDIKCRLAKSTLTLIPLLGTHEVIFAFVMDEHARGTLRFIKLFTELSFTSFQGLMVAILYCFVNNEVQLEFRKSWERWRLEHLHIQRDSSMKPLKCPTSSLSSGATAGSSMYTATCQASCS

Substance: GLP-1(9-36)NH2
- cAMP response (human GLP-1R wildtype [1]): unable to activate the cAMP pathway; also recorded: unable to generate a cAMP response
- pERK1/2 response (human GLP-1R wildtype [2]): can still promote pERK1/2; also recorded: maintains the ability to promote pERK1/2
